Legend:
[1] = target: T1, Human adrenergic α2A receptor (Homo sapiens, UniProt P08913); assay: Radioligand binding, adrenergic α2A (Protocol Group A); design: expressed in transfected cells; host or cells: insect Sf9 cells; conditions: 0.1 μM compound, [3H]MK-912, read-out: percent inhibition of specific binding, Adrenergic α2A
T1 sequence (P08913 1-465): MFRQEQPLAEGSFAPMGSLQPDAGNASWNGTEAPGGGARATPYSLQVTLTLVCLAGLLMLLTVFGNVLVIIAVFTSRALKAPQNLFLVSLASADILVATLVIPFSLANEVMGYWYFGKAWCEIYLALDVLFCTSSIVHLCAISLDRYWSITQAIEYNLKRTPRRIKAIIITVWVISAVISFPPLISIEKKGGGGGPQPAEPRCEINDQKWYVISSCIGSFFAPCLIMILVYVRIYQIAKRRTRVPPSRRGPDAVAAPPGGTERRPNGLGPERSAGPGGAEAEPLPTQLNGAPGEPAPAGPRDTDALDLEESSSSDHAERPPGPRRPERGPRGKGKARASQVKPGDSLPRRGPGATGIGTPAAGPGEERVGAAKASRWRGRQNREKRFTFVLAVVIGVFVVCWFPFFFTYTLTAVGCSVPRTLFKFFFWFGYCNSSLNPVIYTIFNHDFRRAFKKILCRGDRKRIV
Procedure: To evaluate in radioligand binding assays the activity of compounds of the invention, human recombinant adrenergic α2A receptor expressed in insect Sf9 cells (Uhlen, S. et al, J. Pharmacol. Exp. Ther. 271:1558, 1994) in a modified Tris-HCl buffer (50 mM Tris-HCl, pH 7.4, 12.5 mM MgCl2, 2 mM EDTA) was used. Compounds of invention were incubated with 1 nM [^3H]MK-912 for 60 min at 25° C. MK912 is (2S-trans)-1,3,4,5′,6,6′,7,12b-octahydro-1′,3′-dimethyl-spiro[2H-benzofuro[2,3-a]quinolizine-2,4′(1′H)-pyrimidin]-2′(3′H)-one hydrochloride. Non-specific binding was estimated in the presence of 10 μM WB-4101 (2-(2,6-Dimethoxyphenoxyethyl)aminomethyl-1,4-benzodioxane hydrochloride). Receptor proteins were filtered and washed, the filters were then counted to determine [^3H]MK-912 specifically bound. Compounds were screened at 1 μM or lower, using 1% DMSO as vehicle. Compounds of the invention were tested in this biochemical assay and percent inhibition of specific binding was determined. Biochemical assay results are presented as the percent inhibition of specific binding in Table B1a.

[2] = target: T2, Human adrenergic α2B receptor (Homo sapiens, UniProt P18089); assay: Radioligand binding, adrenergic α2B (Protocol Group A); design: expressed in transfected cells; host or cells: CHO-K1; conditions: 0.03 μM compound, [3H]Rauwolscine, read-out: percent inhibition of specific binding, Adrenergic α2B
T2 sequence (P18089 1-450): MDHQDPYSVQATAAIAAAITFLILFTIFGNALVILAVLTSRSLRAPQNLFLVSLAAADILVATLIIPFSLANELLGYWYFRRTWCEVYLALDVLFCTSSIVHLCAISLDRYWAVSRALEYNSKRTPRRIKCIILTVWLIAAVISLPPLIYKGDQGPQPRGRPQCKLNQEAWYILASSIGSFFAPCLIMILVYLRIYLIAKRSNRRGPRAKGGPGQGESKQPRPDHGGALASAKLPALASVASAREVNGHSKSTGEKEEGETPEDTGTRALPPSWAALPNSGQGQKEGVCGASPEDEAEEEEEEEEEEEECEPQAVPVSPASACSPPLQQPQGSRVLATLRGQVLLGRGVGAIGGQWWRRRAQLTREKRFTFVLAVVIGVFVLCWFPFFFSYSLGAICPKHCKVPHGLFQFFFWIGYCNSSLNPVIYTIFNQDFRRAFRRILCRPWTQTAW
Procedure: To evaluate in radioligand binding assays the activity of compounds of the invention, human recombinant adrenergic α2B receptor expressed in Chinese hamster ovary (CHO) K1 cells (Uhlen, S. et al, Eur. J. Pharmacol. 343(1):93, 1998) in a modified Tris-HCl buffer (50 mM Tris-HCl, pH 7.4, 12.5 mM MgCl2, 1 mM EDTA, 0.2% BSA) was used. Compounds of the invention were incubated with 2.5 nM [3H]Rauwolscine for 60 min at 25° C. Non-specific binding was estimated in the presence of 10 μM Prazosin. Receptor proteins were filtered and washed, the filters were then counted to determine [3H]Rauwolscine specifically bound. Compounds were screened at 1 μM or lower, using 1% DMSO as vehicle. Compounds of the invention were tested in this biochemical assay and percent inhibition of specific binding was determined. Biochemical assay results are presented as the percent inhibition of specific binding in Table B1a.

[3] = Epimerization of chiral compounds in simulated gastric fluid (SGF); type: physicochemical; conditions: 24 h
Procedure: Epimerization Method for Studying Chiral Compounds in Simulated Gastric Fluid (SGF) and Stimulated Intestinal Fluid (SIF)
A measured quantity of sample was dissolved in SGF or SIF at the concentration of 1 mg/mL in a volumetric flask and appropriate number of aliquots of this solution were transferred to incubation vials as per the given time points. For the sample of zero hour, the appropriate volume of saturated Bicarbonate solution was added immediately to the sample, and was stirred for 5-10 mins. The compound was extracted in a suitable solvent (e.g. Ethyl acetate), decanting the organic layer. The organic solvent was evaporated, and the residue was dissolved in an appropriate solvent (Methanol/Ethanol), filtered through a 0.22 μm membrane filter and analyzed by chiral HPLC. The remaining aliquots were incubated at different temperatures i.e. 25° C. and 37° C. in a water bath as per the given time points. The respective samples were retrieved from the incubator/Water bath at different time intervals as per the given time points: 90 mins, 4 h, 6 h, 12 h and 24 h, and the same procedure for sample preparation was followed for the zero hour sample.
All the chromatograms were obtained at the specified wavelength, compiled and the curves between Time Vs % Area were plotted.

SMILES | inhibition at 0.1 µM [1] | inhibition at 0.03 µM [2] | epimerization ([3]; 25° C.) | epimerization ([3]; 37° C.)
Cc1ccc2c(c1)c1c(n2CC(OC(=O)N2CCCC2)c2ccncc2)CCN(C)C1 (single isomer, unassigned) [4b] | 28% | 86% | – | –
Cc1ccc2c(c1)c1c(n2CC(C)(O)c2ccc(F)nc2)CCN2CCCC12 (single isomer, unassigned) [6a] | 59% | 107% | – | –
Cc1ccc2c(c1)c1c(n2CC(O)c2ccncc2)CCN2CCCC12 (single isomer, unassigned) [Compound No. 178d] | – | – | up to 41.29% | 50.13%
Cc1cc(F)c2c(c1)c1c(n2CC(C)(O)c2cccnc2)CCN2CCCC12 (centres unmarked) [Compound No. 79a] | – | – | 2% | 21.39%

— patent US20150315188A1, “COMPOUNDS AND METHODS FOR TREATMENT OF HYPERTENSION” (MEDIVATION TECHNOLOGIES, INC., priority 2012, published 2015)
